Laboratory results published in ChEMBL document CHEMBL1129864, “A new series of selective COX-2 inhibitors: 5,6-diarylthiazolo[3,2-b][1,2,4]triazoles” (Bioorg Med Chem Lett, 1997).

What was measured:
[1] = Percentage recovery after 3h incubation with rat hapatocytes was determined; type: ADME, organism-based; settings: hepatocytes, read-out: Recovery
[2] = target: T1, Prostaglandin G/H synthase 2 (Homo sapiens, UniProt P35354); type: organism-based, Blood
T1 sequence (P35354 whole entry): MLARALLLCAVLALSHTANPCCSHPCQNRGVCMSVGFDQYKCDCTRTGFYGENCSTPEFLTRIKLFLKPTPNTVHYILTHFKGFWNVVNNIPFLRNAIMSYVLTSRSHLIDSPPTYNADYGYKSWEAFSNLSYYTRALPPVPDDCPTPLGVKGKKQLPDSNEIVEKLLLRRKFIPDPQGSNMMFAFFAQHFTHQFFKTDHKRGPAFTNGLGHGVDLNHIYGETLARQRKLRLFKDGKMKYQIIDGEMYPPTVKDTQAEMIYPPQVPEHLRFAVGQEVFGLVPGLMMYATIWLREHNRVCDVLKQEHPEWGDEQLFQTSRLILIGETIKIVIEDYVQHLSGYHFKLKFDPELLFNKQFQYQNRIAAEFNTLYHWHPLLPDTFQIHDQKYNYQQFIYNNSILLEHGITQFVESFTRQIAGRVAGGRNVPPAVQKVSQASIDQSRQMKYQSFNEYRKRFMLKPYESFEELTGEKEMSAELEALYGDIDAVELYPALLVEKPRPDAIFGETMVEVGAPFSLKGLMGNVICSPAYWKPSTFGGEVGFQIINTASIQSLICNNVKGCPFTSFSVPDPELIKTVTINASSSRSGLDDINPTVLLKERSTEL
Description: In vivo ability to inhibit Prostaglandin G/H synthase 2 in human whole blood assay

[3] = target: T1, Prostaglandin G/H synthase 2; type: cell-based, CHO
Description: Tested in vitro for the ability to inhibit Prostaglandin G/H synthase 2 in chinese hamster ovary (CHO) cells

Rattus norvegicus [4] = species: Rattus norvegicus; experiment: Plasma clearance in rat; type: ADME, organism-based; settings: in vivo
[5] = Maximum concentration at 4 hr after administration of 5 mg/kg dose peroral in rat; type: ADME, organism-based; parameters: dose 5 mg/kg, route oral; settings: in vivo, po
Rattus norvegicus [6] = experiment: Intrinsic activity in the rat paw edema model; type: functional
Rattus norvegicus [7] = species: Rattus norvegicus; experiment: Intrinsic activity in the rat pyresis assay; type: functional
Rattus norvegicus [8] = species: Rattus norvegicus; experiment: Intrinsic activity in the rat hyperalgesia assay; type: functional; settings: read-out: ID50 (the source's name)
[9] = Bioavailability at 4 hr after administration of 5 mg/kg dose peroral in rat; type: ADME, organism-based; settings: in vivo, po
[10] = target: Prostaglandin G/H synthase 1 (Homo sapiens, UniProt P23219)
Prostaglandin G/H synthase 1, sequence (P23219 whole entry): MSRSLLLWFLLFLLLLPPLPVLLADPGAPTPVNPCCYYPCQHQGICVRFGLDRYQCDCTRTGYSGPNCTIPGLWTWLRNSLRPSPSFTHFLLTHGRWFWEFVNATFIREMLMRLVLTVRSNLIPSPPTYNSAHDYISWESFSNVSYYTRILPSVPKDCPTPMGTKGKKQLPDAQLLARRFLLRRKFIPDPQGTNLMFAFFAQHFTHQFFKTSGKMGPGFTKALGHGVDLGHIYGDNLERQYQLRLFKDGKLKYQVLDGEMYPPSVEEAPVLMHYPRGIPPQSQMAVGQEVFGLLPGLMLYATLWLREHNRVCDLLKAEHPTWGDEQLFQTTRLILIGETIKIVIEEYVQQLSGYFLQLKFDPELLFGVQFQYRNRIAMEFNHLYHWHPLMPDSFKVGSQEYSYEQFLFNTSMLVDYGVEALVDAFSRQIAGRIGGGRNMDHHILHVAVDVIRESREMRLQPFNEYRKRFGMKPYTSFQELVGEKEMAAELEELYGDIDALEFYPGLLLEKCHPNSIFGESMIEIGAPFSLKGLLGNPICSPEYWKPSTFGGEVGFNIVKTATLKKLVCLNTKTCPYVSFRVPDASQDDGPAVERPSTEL
Description: Tested in vitro for the ability to inhibit Prostaglandin G/H synthase 1 in chinese hamster ovary (CHO) cells

Row | Compound | IC50 [2] | IC50 [3] | IC50 [10] | also measured
1 | CS(=O)(=O)c1ccc(-c2sc3ncnn3c2-c2ccccc2)cc1 | 2300 nM | 10 nM | 43000 nM | remaining at 3 h [1]: > 95%; Clearance (Rattus norvegicus [4]): 13 mL/min/kg; Cmax [5]: 7.2 µM; ED50 (Rattus norvegicus [6]): 1.7 mg/kg; ED50 (Rattus norvegicus [7]): 1 mg/kg; ED50 (Rattus norvegicus [8]): 1 mg/kg; bioavailability [9]: ~100%
2 | CS(=O)(=O)c1ccc(-c2c(-c3ccccc3)nc3sccn23)cc1 | – | – | – | remaining at 3 h [1]: < 10%
3 | CC(C)c1nc2sc(-c3ccc(S(C)(=O)=O)cc3)c(-c3ccccc3)n2n1 | – | 11 nM | 600 nM | –
4 | CS(=O)(=O)c1ccc(-c2sc3nncn3c2-c2ccccc2)cc1 | – | 450 nM | > 50000 nM | –
5 | Cc1nc2sc(-c3ccc(S(C)(=O)=O)cc3)c(-c3cccc(F)c3)n2n1 | 14000 nM | 150 nM | > 50000 nM | –
6 | C=Cc1nc2sc(-c3ccc(S(C)(=O)=O)cc3)c(-c3ccccc3)n2n1 | 4100 nM | 6 nM | 9600 nM | –
7 | CS(=O)(=O)c1ccc(-c2c(-c3ccccc3)sc3nc(C(F)(F)F)nn23)cc1 | – | > 50000 nM | 9000 nM | –
8 | CS(=O)(=O)c1ccc(-c2sc3nc(C(F)(F)F)nn3c2-c2ccccc2)cc1 | – | – | 1100 nM | –
9 | Cc1nc2sc(-c3ccc(S(C)(=O)=O)cc3)c(-c3ccccc3)n2n1 | 10000 nM | 20 nM | > 50000 nM | –
10 | CS(=O)(=O)c1ccc(-c2sc3nc(C(F)(F)F)nn3c2-c2cccc(F)c2)cc1 | – | 13 nM | 8500 nM | –
11 | Cc1cccc(-c2c(-c3ccc(S(C)(=O)=O)cc3)sc3nc(C(F)(F)F)nn23)c1 | – | 3 nM | 610 nM | –
12 | CS(=O)(=O)c1ccc(-c2c(-c3ccccc3)sc3nncn23)cc1 | – | 230 nM | 2100 nM | –
13 | CS(=O)(=O)c1ccc(-c2c(-c3ccccc3)sc3ncnn23)cc1 | > 30000 nM | 32 nM | > 50000 nM | –
14 | CCc1nc2sc(-c3ccc(S(C)(=O)=O)cc3)c(-c3ccccc3)n2n1 | – | 15 nM | 2400 nM | –
15 | COc1cccc(-c2c(-c3ccc(S(C)(=O)=O)cc3)sc3ncnn23)c1 | – | 260 nM | > 50000 nM | –
16 | CS(=O)(=O)c1ccc(-c2sc3ncnn3c2-c2cccc(F)c2)cc1 | 4200 nM | 22 nM | > 50000 nM | –
17 | CS(=O)(=O)c1ccc(-c2sc3ncnn3c2-c2cc(F)cc(F)c2)cc1 | – | 80 nM | > 50000 nM | –
18 | CS(=O)(=O)c1ccc(-c2sc3ncnn3c2-c2ccc(F)c(F)c2)cc1 | > 30000 nM | 48 nM | 30000 nM | –
19 | CS(=O)(=O)c1ccc(-c2sc3ncnn3c2-c2ccc(F)cc2)cc1 | – | 36 nM | 15000 nM | –
